ChEMBL document CHEMBL1158425 (Bioorg Med Chem Lett, 2009)

Tests used:
[1] = system: A2780; assay: Growth inhibition of human adriamycin and doxorubicin-resistant A2780 cells after 72 hrs; format: functional, cell-based; details: A2780, 72 h
[2] = Ratio of IC50 for drug to IC50 for paclitaxel against human paclitaxel-resistant A2780TC3 cells overexpressing class 3 beta-tubulin; format: functional
[3] = Ratio of IC50 for drug to IC50 for IDN 5390 against human paclitaxel-resistant A2780TC3 cells overexpressing class 3 beta-tubulin; format: functional
[4] = system: A2780; assay: Growth inhibition of human wild type A2780 cells after 72 hrs; format: functional, cell-based; details: A2780, 72 h
[5] = system: A2780; assay: Growth inhibition of human cisplatin-resistant A2780 cells after 72 hrs; format: functional, cell-based; details: A2780, 72 h
[6] = system: A2780; assay: Growth inhibition of human topotecan-resistant A2780 cells after 72 hrs; format: functional, cell-based; details: A2780, 72 h
[7] = Growth inhibition of human paclitaxel-resistant A2780TC1 cells overexpressing class 3 beta-tubulin after 72 hrs; format: functional, cell-based; details: A2780TC1, 72 h
[8] = Growth inhibition of human paclitaxel-resistant A2780TC3 cells overexpressing class 3 beta-tubulin after 72 hrs; format: functional, cell-based; details: A2780TC3, 72 h
[9] = system: A2780; assay: Resistant factor, IC50 for human paclitaxel-resistant A2780TC3 cells overexpressing class 3 beta-tubulin to IC50 for human wild type A2780 cells; format: functional
[10] = system: A2780; assay: Ratio of IC50 for drug to IC50 for paclitaxel against human adriamycin and doxorubicin-resistant A2780 cells; format: functional
[11] = system: A2780; assay: Ratio of IC50 for drug to IC50 for IDN 5390 against human adriamycin and doxorubicin-resistant A2780 cells; format: functional
[12] = Ratio of IC50 for drug to IC50 for paclitaxel against human paclitaxel-resistant A2780TC1 cells overexpressing class 3 beta-tubulin; format: functional
[13] = system: A2780; assay: Resistant factor, IC50 for human paclitaxel-resistant A2780TC1 cells overexpressing class 3 beta-tubulin to IC50 for human wild type A2780 cells; format: functional, cell-based
[14] = Ratio of IC50 for IDN 5390 to IC50 for paclitaxel against human paclitaxel-resistant A2780TC3 cells overexpressing class 3 beta-tubulin; format: functional

IC50 [1]	IC50 [4]	IC50 [5]	IC50 [6]	SMILES	Ratio IC50 [2]	Ratio IC50 [3]	IC50 [7]	IC50 [8]	Ratio IC50 [9]	Ratio IC50 [10]	Ratio IC50 [11]	Ratio IC50 [12]	Ratio IC50 [13]	Ratio IC50 [14]
2220 nM	–	–	–	CC(=O)O[C@@]1([C@@H]2/C(C)=C(/O)C(=O)C3=C(C)[C@@H](OC(=O)[C@H](O)[C@H](C=C(C)C)NC(=O)OC(C)(C)C)C[C@@](O)([C@H]2OC(=O)c2cccc(F)c2)C3(C)C)CO[C@@H]1CCO	24	3	–	–	–	–	–	–	–	–
356 nM	6.8 nM	4.3 nM	3.5 nM	COc1cccc(C(=O)O[C@H]2[C@H]([C@]3(OC(C)=O)CO[C@@H]3CCO)/C(C)=C(/O)C(=O)C3=C(C)[C@@H](OC(=O)[C@H](O)[C@H](CC(C)C)NC(=O)OC(C)(C)C)C[C@]2(O)C3(C)C)c1	24	3	1120 nM	211 nM	31	2.1	4.3	2.3	–	–
452 nM	4.6 nM	4 nM	1.7 nM	CC(=O)O[C@@]1([C@@H]2/C(C)=C(/O)C(=O)C3=C(C)[C@@H](OC(=O)[C@H](O)[C@H](C=C(C)C)NC(=O)OC(C)(C)C)C[C@@](O)([C@H]2OC(=O)c2cccc(Cl)c2)C3(C)C)CO[C@@H]1CCO	24	3	751 nM	357 nM	–	2.1	4.3	2.3	163	–
386 nM	4.6 nM	5.7 nM	2.6 nM	COc1cccc(C(=O)O[C@H]2[C@H]([C@]3(OC(C)=O)CO[C@@H]3CCO)/C(C)=C(/O)C(=O)C3=C(C)[C@@H](OC(=O)[C@H](O)[C@H](C=C(C)C)NC(=O)OC(C)(C)C)C[C@]2(O)C3(C)C)c1	24	3	1060 nM	490 nM	–	2.1	4.3	2.3	–	–
3730 nM	11.1 nM	11.8 nM	12.8 nM	CC(=O)O[C@@]1([C@@H]2/C(C)=C(/O)C(=O)C3=C(C)[C@@H](OC(=O)[C@H](O)[C@H](CC(C)C)NC(=O)OC(C)(C)C)C[C@@](O)([C@H]2OC(=O)c2cccc(F)c2)C3(C)C)CO[C@@H]1CCO	24	3	1500 nM	460 nM	–	–	–	2.3	–	–
604 nM	5.5 nM	4.1 nM	4.6 nM	CC(=O)O[C@@]1([C@@H]2/C(C)=C(/O)C(=O)C3=C(C)[C@@H](OC(=O)[C@H](O)[C@H](CC(C)C)NC(=O)OC(C)(C)C)C[C@@](O)([C@H]2OC(=O)c2cccc(Cl)c2)C3(C)C)CO[C@@H]1CCO	24	3	1800 nM	385 nM	–	2.1	4.3	2.3	–	–

SMILES	IC50 [1]	IC50 [4]	IC50 [5]	IC50 [6]	Ratio IC50 [2]	Ratio IC50 [3]	IC50 [7]	IC50 [8]	Ratio IC50 [9]	Ratio IC50 [10]	Ratio IC50 [11]	Ratio IC50 [12]	Ratio IC50 [13]	Ratio IC50 [14]
CC(=O)O[C@@]1([C@@H]2/C(C)=C(/O)C(=O)C3=C(C)[C@@H](OC(=O)[C@H](O)[C@H](CC(C)C)NC(=O)OC(C)(C)C)C[C@@](O)([C@H]2OC(=O)c2ccccc2)C3(C)C)CO[C@@H]1CCO	2620 nM	17.4 nM	16.8 nM	27.5 nM	–	–	2060 nM	2240 nM	129	–	–	–	–	8
